In general, IC50 refers to the midpoint of a concentration-inhibition curve.

Here are results for 17 compounds from patent US20250340886A1, “INTRACELLULAR KINASE ASSOCIATED WITH RESISTANCE AGAINST ANTI-TUMOUR IMMUNE RESPONSES, AND USES THEREOF” (iOmx Therapeutics AG, priority 2017, published 2025).

Read-outs that look alike come from different tables or passages of the source.

Holding throughout (test): radiometric protein kinase assay (33PanQinase Activity Assay, ProQinase Free Choice Kinase Assay)
Format in all cases: biochemical

The target of one experiment is SIK1 (Homo sapiens (Human), UniProt P57059). The settings on record: read-out: SIK1 IC50 rank.
SIK1, sequence (P57059 whole entry): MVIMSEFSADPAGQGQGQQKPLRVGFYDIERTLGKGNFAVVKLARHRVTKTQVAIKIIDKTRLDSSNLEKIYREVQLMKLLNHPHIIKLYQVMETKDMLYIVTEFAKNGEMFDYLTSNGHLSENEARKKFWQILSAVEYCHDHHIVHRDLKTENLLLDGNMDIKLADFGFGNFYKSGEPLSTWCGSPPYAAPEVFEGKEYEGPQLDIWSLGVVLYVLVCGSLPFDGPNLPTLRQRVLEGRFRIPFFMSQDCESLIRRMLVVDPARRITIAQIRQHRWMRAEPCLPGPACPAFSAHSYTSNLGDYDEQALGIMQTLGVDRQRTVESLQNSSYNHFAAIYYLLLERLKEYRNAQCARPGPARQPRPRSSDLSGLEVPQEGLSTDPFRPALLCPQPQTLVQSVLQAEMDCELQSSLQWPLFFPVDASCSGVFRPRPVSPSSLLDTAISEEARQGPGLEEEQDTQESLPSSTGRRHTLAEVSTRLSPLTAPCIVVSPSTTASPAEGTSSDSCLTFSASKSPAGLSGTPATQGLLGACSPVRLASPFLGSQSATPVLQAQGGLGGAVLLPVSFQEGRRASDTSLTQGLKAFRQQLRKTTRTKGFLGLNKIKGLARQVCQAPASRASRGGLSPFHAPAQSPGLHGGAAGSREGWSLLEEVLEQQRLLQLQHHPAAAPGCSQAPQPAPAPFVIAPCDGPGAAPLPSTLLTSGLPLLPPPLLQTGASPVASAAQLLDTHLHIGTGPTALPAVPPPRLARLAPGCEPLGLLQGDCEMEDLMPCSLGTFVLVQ
The target of the next experiment is SIK2 (Homo sapiens (Human), UniProt Q9H0K1). The settings on record: ATP 1.0 uM, read-out: SIK2 IC50 rank.
SIK2, sequence (Q9H0K1 whole entry): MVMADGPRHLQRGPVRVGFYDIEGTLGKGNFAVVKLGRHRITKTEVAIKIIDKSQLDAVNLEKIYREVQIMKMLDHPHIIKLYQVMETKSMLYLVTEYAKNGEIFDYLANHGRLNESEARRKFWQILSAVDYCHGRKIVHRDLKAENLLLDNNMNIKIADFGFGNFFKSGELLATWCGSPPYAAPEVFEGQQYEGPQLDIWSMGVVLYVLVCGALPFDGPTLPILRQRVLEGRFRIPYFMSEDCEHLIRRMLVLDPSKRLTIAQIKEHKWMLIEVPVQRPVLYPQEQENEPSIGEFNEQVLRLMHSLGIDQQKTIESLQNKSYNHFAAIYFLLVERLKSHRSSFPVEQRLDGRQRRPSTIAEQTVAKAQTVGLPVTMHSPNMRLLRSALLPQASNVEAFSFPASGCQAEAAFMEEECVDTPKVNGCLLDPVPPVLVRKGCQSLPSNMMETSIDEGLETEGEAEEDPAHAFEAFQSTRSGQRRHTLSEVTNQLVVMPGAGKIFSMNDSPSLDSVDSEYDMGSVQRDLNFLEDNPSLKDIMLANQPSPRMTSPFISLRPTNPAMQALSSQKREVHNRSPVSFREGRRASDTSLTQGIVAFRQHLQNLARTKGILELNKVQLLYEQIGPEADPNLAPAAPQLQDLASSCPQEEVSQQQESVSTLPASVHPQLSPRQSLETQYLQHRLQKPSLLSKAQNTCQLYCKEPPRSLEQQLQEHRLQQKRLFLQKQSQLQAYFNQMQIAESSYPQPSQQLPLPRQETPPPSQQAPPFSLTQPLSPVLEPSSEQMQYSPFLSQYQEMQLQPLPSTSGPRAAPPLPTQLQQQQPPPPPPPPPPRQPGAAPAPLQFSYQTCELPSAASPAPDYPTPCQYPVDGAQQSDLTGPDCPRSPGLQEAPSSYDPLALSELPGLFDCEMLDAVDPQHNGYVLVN
For a further experiment, the target named is SIK3 (Homo sapiens (Human), UniProt Q9Y2K2). Particulars: read-out: SIK3 IC50 rank.
SIK3, sequence (Q9Y2K2 whole entry): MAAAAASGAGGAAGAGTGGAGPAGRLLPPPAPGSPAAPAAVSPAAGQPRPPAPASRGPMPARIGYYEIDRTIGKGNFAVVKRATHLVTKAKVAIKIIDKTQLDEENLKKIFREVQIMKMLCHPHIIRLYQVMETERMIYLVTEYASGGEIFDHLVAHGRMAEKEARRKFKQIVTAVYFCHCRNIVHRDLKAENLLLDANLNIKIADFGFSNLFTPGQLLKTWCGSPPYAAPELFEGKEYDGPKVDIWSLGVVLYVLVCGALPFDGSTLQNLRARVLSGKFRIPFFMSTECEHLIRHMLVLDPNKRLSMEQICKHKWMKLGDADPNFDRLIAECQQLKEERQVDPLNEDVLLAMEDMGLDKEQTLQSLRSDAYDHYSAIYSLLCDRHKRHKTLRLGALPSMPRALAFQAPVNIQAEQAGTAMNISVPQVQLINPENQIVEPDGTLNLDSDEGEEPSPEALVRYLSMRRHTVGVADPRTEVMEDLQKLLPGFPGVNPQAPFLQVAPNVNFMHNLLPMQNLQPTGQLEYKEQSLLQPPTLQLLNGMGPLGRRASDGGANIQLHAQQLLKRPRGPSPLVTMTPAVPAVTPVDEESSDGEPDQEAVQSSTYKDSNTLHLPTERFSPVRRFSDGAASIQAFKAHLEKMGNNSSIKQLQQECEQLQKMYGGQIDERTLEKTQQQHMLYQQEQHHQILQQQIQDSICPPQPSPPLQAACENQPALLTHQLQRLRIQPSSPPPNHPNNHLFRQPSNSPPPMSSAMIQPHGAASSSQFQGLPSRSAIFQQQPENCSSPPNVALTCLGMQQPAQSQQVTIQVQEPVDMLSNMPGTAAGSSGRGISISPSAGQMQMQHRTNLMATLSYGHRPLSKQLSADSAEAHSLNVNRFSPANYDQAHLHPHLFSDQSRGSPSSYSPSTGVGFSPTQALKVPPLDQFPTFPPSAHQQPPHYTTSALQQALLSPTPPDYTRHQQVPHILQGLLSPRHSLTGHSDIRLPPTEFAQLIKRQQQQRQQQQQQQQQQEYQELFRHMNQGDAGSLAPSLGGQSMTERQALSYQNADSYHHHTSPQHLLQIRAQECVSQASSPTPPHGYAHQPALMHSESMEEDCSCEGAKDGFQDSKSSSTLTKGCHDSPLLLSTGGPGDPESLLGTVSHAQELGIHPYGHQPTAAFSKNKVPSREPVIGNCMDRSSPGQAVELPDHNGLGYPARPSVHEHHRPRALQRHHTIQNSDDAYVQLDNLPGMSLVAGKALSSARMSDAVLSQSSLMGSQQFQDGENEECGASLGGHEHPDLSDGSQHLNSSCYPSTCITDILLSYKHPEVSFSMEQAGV
Another experiment addresses ABL1 wt (Homo sapiens (Human), UniProt P00519). The settings on record: indicative IC50, Table 4; ATP 0.3 uM; read-out: ABL1 IC50 rank.
Another experiment concerns the target SRC (GST-HIS-tag) (Homo sapiens (Human), UniProt P12931). Particulars: indicative IC50, Table 4; ATP 0.3 uM; read-out: SRC IC50 rank.
Setting [1] is: indicative IC50, Table 2A, ATP 3.0 uM.
[2] abbreviates: indicative IC50, Table 2A, ATP 1.0 uM.
Setting [3] is: indicative IC50, Table 4, ATP 3.0 uM.
The mark [4] stands for this setting: indicative IC50, Table 4, ATP 1.0 uM.

ABL1 wt, sequence (P00519 whole entry): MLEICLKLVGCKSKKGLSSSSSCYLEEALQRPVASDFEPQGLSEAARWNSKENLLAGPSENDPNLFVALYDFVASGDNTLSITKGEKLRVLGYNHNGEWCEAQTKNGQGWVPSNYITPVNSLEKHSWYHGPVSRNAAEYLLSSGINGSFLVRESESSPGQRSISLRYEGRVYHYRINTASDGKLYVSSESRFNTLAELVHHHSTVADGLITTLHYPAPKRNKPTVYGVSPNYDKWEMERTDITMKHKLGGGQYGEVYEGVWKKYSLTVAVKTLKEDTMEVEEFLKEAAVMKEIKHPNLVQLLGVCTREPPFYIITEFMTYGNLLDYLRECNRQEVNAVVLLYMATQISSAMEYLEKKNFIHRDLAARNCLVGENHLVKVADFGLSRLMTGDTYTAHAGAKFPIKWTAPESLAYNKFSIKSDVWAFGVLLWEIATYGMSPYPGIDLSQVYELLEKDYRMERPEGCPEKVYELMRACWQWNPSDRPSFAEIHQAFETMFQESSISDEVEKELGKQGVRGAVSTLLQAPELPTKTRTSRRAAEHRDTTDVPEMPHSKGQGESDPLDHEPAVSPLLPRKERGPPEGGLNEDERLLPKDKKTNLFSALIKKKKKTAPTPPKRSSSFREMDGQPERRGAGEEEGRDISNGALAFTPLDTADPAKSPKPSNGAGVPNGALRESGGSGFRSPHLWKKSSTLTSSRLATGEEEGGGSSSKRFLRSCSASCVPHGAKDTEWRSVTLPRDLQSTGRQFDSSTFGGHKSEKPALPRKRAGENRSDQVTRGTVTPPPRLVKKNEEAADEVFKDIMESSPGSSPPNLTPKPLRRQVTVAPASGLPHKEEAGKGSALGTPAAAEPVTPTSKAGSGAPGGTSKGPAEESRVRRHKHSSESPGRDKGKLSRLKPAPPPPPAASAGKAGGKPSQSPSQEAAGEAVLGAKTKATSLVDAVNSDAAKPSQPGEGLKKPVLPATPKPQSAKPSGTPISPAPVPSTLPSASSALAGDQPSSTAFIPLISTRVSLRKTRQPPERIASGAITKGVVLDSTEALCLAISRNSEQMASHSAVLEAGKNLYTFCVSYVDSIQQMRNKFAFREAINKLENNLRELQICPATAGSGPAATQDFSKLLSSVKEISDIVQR
SRC (GST-HIS-tag), sequence (P12931 whole entry, looked up): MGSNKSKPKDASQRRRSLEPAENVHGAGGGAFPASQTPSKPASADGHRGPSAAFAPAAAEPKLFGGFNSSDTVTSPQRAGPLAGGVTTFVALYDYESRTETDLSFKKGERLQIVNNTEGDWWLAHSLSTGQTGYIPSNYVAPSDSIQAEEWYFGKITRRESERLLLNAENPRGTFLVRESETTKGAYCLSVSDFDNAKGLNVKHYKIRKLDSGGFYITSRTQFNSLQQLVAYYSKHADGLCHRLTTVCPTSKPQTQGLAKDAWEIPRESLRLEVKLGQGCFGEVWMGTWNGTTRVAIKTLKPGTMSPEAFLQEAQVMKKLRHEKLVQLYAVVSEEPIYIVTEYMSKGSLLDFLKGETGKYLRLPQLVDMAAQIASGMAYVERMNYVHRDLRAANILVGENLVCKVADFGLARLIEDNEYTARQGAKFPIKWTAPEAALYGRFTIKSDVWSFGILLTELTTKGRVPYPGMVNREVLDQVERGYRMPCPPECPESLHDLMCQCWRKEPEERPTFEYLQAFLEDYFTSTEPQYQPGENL

Turning to `Cc1nc(Nc2ncc(C(=O)Nc3c(F)cccc3Cl)s2)cc(N2CCN(CCO)CC2)n1` [Compound A1, N-(2-chloro-6-fluorophenyl)-2-((6-(4-(2-hydroxyethyl)piperazin-1-yl)-2-methylpyrimidin-4-yl)amino)thiazole-5-carboxamide], the IC50 on SIK1 (setting [1]) is < 100 nM; at SIK2 (indicative IC50, Table 2A) it was < 100 nM; at SIK3 (setting [2]), < 100 nM.
With `Cc1nc(Nc2ncc(C(=O)Nc3c(F)cccc3F)s2)cc(N2CCN(CCO)CC2)n1` [Compound A2, N-(2,6-difluorophenyl)-2-((6-{4-(2-hydroxyethyl)piperazin-1-yl)-2-methylpyrimidin-4-yl)amino)thiazole-5-carboxamide], the IC50 is < 100 nM on SIK1 (setting [1]); < 100 nM on SIK2 (indicative IC50, Table 2A); < 100 nM on SIK3 (setting [2]).
Regarding `Cc1nc(Nc2ncc(C(=O)Nc3c(F)cccc3Br)s2)cc(N2CCN(CCO)CC2)n1` [Compound A3, N-(2-bromo-6-fluorophenyl)-2-((6-(4-(2-hydroxyethyl)piperazin-1-yl)-2-methylpyrimidin-4-yl)amino)thiazole-5-carboxamide], the IC50 was < 100 nM on SIK1 (setting [1]); < 100 nM at SIK2 (indicative IC50, Table 2A); < 100 nM on SIK3 (setting [2]).
For the compound `C#Cc1cccc(NC(=O)c2cnc(Nc3cc(N4CCN(CCO)CC4)nc(C)n3)s2)c1` [Compound A4, N-(3-ethynylphenyl)-2-((6-(4-(2-hydroxyethyl)piperazin-1-yl)-2-methylpyrimidin-4-yl)amino)thiazole-5-carboxamide], the IC50 is > 1000 nM at SIK1 (setting [1]); > 100 nM at SIK2 (indicative IC50, Table 2A); > 1000 nM at SIK3 (setting [2]).
For the compound `Cc1nc(Nc2ncc(C(=O)Nc3ccc(F)cc3)s2)cc(N2CCN(CCO)CC2)n1` [Compound A5, N-(4-fluorophenyl)-2-((6-(4-(2-hydroxyethyl)piperazin-1-yl)-2-methylpyrimidin-4-yl)amino)thiazole-5-carboxamide], the IC50 is > 100 nM on SIK1 (setting [1]); > 100 nM on SIK2 (indicative IC50, Table 2A); > 1000 nM on SIK3 (setting [2]).
`Cc1nc(Nc2ncc(C(=O)Nc3ccc(Br)cc3F)s2)cc(N2CCN(CCO)CC2)n1` [Compound A7, N-(4-bromo-6-fluorophenyl)-2-((6-(4-(2-hydroxyethyl)piperazin-1-yl)-2-methylpyrimidin-4-yl)amino)thiazole-5-carboxamide]: the IC50 on SIK1 (setting [1]) was < 100 nM; at SIK2 (indicative IC50, Table 2A), > 100 nM; on SIK3 (setting [2]) it was > 500 nM.
For `Cc1nc(Nc2ncc(C(=O)Nc3ccccc3C)s2)cc(N2CCN(CCO)CC2)n1` [Compound A9, 2-((6-(4-(2-hydroxyethyl)piperazin-1-yl)-2-methylpyrimidin-4-yl)amino)-N-(o-tolyl)thiazole-5-carboxamide], in that order: < 100 nM, < 100 nM and < 100 nM.
For `Cc1nc(Nc2ncc(C(=O)Nc3ccccc3Cl)s2)cc(N2CCN(CCO)CC2)n1` [Compound A10, N-(2-chlorophenyl)-2-((6-(4-(2-hydroxyethyl)piperazin-1-yl)-2-methylpyrimidin-4-yl)amino)thiazole-5-carboxamide] the same measures were < 100 nM, < 100 nM and > 100 nM.
Consider `Cc1nc(Nc2ncc(C(=O)Nc3c(C)cccc3C)s2)cc(N2CCN(CCO)CC2)n1` [Compound A12, N-(2,6-dimethylphenyl)-2-((6-(4-(2-hydroxyethyl)piperazin-1-yl)-2-methylpyrimidin-4-yl)amino)thiazole-5-carboxamide], for which the IC50 at SIK1 (setting [1]) was < 100 nM; at SIK2 (indicative IC50, Table 2A), < 100 nM; at SIK3 (setting [2]), < 100 nM.
As for `Cc1nc(Nc2ncc(C(=O)Nc3c(Cl)cccc3Cl)s2)cc(N2CCN(CCO)CC2)n1` [Compound A13, N-(2,6-dichlorophenyl)-2-((6-(4-(2-hydroxyethyl)piperazin-1-yl)-2-methylpyrimidin-4-yl)amino)thiazole-5-carboxamide], the IC50 was < 100 nM on SIK1 (setting [1]); < 100 nM at SIK2 (indicative IC50, Table 2A); < 100 nM at SIK3 (setting [2]).
Turning to `Cc1nc(Nc2ncc(C(=O)Nc3c(Cl)cccc3Br)s2)cc(N2CCN(CCO)CC2)n1` [Compound B1, N-(2-bromo-6-chlorophenyl)-2-((6-(4-(2-hydroxyethyl)piperazin-1-yl)-2-methylpyrimidin-4-yl)amino)thiazole-5-carboxamide], the IC50 on SIK1 (setting [3]) is < 100 nM; at SIK2 (indicative IC50, Table 4), < 100 nM; at SIK3 (setting [4]), < 100 nM; on ABL1 wt it was < 100 nM; at SRC (GST-HIS-tag), < 100 nM.
Take `Cc1nc(Nc2ncc(C(=O)Nc3c(Br)cccc3Br)s2)cc(N2CCN(CCO)CC2)n1` [Compound B2, N-(2,6-dibromophenyl)-2-((6-(4-(2-hydroxyethyl)piperazin-1-yl)-2-methylpyrimidin-4-yl)amino)thiazole-5-carboxamide]: the IC50 was < 100 nM on SIK1 (setting [3]); < 100 nM on SIK2 (indicative IC50, Table 4); > 100 nM at SIK3 (setting [4]); < 100 nM at ABL1 wt; < 100 nM at SRC (GST-HIS-tag).
In the case of `COc1c(F)cccc1NC(=O)c1cnc(Nc2cc(N3CCN(CCO)CC3)nc(C)n2)s1` [Compound B4, N-(3-fluoro-2-methoxyphenyl)-2-((6-(4-(2-hydroxyethyl)piperazin-1-yl)-2-methylpyrimidin-4-yl)amino)thiazole-5-carboxamide], the IC50 on SIK1 (setting [3]) was > 100 nM; at SIK2 (indicative IC50, Table 4) it was > 100 nM; at SIK3 (setting [4]) it was > 1000 nM; on ABL1 wt, < 100 nM; on SRC (GST-HIS-tag), < 100 nM.
`Cc1nc(Nc2ncc(C(=O)Nc3c(C)cccc3Cl)s2)cc(N2CCN(C)CC2)n1` [Compound B5, N-(2-chloro-6-methylphenyl)-2-((2-methyl-6-(4-methylpiperazin-1-yl)pyrimidin-4-yl)amino)thiazole-5-carboxamide]: the IC50 at SIK1 (setting [3]) was < 100 nM; at SIK2 (indicative IC50, Table 4), < 100 nM; on SIK3 (setting [4]) it was < 100 nM; on ABL1 wt, < 100 nM; on SRC (GST-HIS-tag) it was < 100 nM.
`CC(=O)N1CCN(c2cc(Nc3ncc(C(=O)Nc4c(C)cccc4Cl)s3)nc(C)n2)CC1` [Compound B6, 2-((6-(4-acetylpiperazin-1-yl)-2-methylpyrimidin-4-yl)amino)-N-(2-chloro-6-methylphenyl)thiazole-5-carboxamide]: the IC50 was < 100 nM on SIK1 (setting [3]); < 100 nM at SIK2 (indicative IC50, Table 4); < 100 nM on SIK3 (setting [4]); < 100 nM at ABL1 wt; < 100 nM on SRC (GST-HIS-tag).
For the compound `Cc1nc(NCCO)cc(Nc2ncc(C(=O)Nc3c(C)cccc3Cl)s2)n1` [Compound B7, N-(2-chloro-6-methylphenyl)-2-((6-((2-hydroxyethyl)amino)-2-methylpyrimidin-4-yl)amino)thiazole-5-carboxamide], the IC50 was < 100 nM on SIK1 (setting [3]); < 100 nM at SIK2 (indicative IC50, Table 4); < 100 nM at SIK3 (setting [4]); < 100 nM on ABL1 wt; < 100 nM at SRC (GST-HIS-tag).
In the case of `Cc1nc(Nc2ncc(C(=O)Nc3ccc(F)c(Cl)c3)s2)cc(N2CCN(CCO)CC2)n1` [Compound B9], the IC50 at SIK1 was > 5000 nM; on SIK2 (indicative IC50, Table 4) it was > 500 nM; at SIK3, > 5000 nM.
